According to publication PMC9698340, “Discovery and SAR Study of Quinoxaline–Arylfuran Derivatives as a New Class of Antitumor Agents” (Pharmaceutics, 2022):

Legend:
[1] = test system: five melanoma cell lines, including mutant B-RAFV600E and wild-type; set-up: method as in PMID 30691132; conditions: range over cell lines; read-out: IC50 values against five melanoma cell lines; cited from earlier work
HeLa cells = assay: CCK-8 antiproliferation assay, HeLa; type: cell-based; conditions: Homo sapiens, 48 h
Method: (§1) Human lung carcinoma cell lines A549, human cervical cancer cell lines HeLa, human prostate cancer cell lines PC3, human colorectal carcinoma cell lines HCT116, and human liver cells L02 were purchased from the Chinese Academy of Sciences Shanghai Cell Bank (Shanghai, China). HeLa, A549, PC3, HCT116, and L02 cells were cultured in DMEM Dulbecco’s Modified Eagle Medium (DMEM; Gibco Inc., Gaithersburg, MD, USA). All cultures were provided with 10% fetal bovine serum (FBS; YHSM, Beijing, China), 100 IU/mL penicillin, and 100 μg/mL streptomycin, and cells were incubated at 37 °C in an atmosphere of 5% CO2.
(§2) Cell viability was determined using a CCK-8 kit (Apexbio, Houston, TX, USA). […] Subsequently, absorbance was assessed at 450 nm. Three duplicates were set in each group.
(§3) All synthesized quinoxalines compounds were tested for in vitro cytotoxicity against four cancer cell lines (HeLa, PC3, A549, and HCT116). The inhibitory effects of these compounds were evaluated using the CCK-8 assay after treatment with 20 μM of each compound. […] The species of phenyl substituents have a significant effect on the activity. […] By comparison, hydrophobic substitution at the phenyl ring gave derivatives with relatively low potency (QW7–8). In addition, large substituents on the phenyl ring exerted an unfavorable influence on the potency of the compounds (QW8 and QW16).

L02 cells = assay: CCK-8 cytotoxicity against normal hepatocytes L02; type: cell-based; conditions: Homo sapiens, 48 h, read-out: IC50 ± SD, L02 (human normal hepatocytes)
Method: as §1, §2
To further evaluate the anticancer effect of QW12, we evaluated its cytotoxicity against four human cancer cell lines: HeLa (Human cervical tumor), PC3 (Human prostate tumor), HCT116 (Human colorectal carcinomas), and A549 (Human lung carcinoma). […] Furthermore, the IC50 values of QW12 against PC3 and HCT116 were similar to those of nifuroxazide.

PC3 cells = assay: CCK-8 antiproliferation assay, PC3; type: cell-based; conditions: Homo sapiens, PC-3, 48 h
Method: as §1, §2, §3

HCT116 cells = assay: CCK-8 antiproliferation assay, HCT116; type: cell-based; conditions: Homo sapiens, HCT-116, 48 h
Method: as §1, §2, §3

A549 cells = assay: CCK-8 antiproliferation assay, A549; type: cell-based; conditions: Homo sapiens, 48 h
Method: as §1, §2, §3

IC50 (HeLa cells; HeLa, CCK-8, read-out: IC50 ± SD, HeLa) [µM]	IC50 (PC3 cells; CCK-8, read-out: IC50 ± SD, PC3) [µM]	IC50 (HCT116 cells; CCK-8, read-out: IC50 ± SD, HCT116) [µM]	IC50 (A549 cells; CCK-8, read-out: IC50 ± SD, A549) [µM]	Structure (SMILES)	IC50 [1] [µM]	inhibition at 20 µM (HeLa cells; 20 μM, CCK-8, mean ± SD, read-out: Inhibition Rate (%) at 20 μM, HeLa) [%]	IC50 (L02 cells) [µM]	inhibition at 20 µM (PC3 cells; 20 μM, CCK-8, mean ± SD, read-out: Inhibition Rate (%) at 20 μM, PC3) [%]	inhibition at 20 µM (HCT116 cells; 20 μM, CCK-8, mean ± SD, read-out: Inhibition Rate (%) at 20 μM, HCT116) [%]	inhibition at 20 µM (A549 cells; 20 μM, CCK-8, mean ± SD, read-out: Inhibition Rate (%) at 20 μM, A549) [%]
				N=C(N)[Se]Cc1nc2ccccc2nc1C[Se]C(=N)N [Compound 5]	0.8 to 3.8					
16.65 ± 0.08	9.83 ± 0.05	10.46 ± 0.04	8.06 ± 0.03	O=C(N/N=C/c1ccc([N+](=O)[O-])o1)c1ccc(O)cc1 [Nifuroxazide, nifuroxazide, reference compound]		80.38 ± 0.17	25.3 ± 0.31	75.29 ± 0.33	85.31 ± 0.24	91.23 ± 0.04
